Key:
Type in all cases: cell-based, Chinese Hamster
[1] = system: aCD137 cells; assay: Screen of antioxidants added to feed media in aCD137 fed-batch cell culture; conditions: for VCD %: day 8 (peak VCD), basal media not supplemented; for VCD % / Titer %: normalized to control without antioxidant; for Titer %: final titer harvested day 14
Experimental: Following the cell culture process described in Example 1, thirteen novel antioxidants (Table 1) were added to the feed media utilized in aCD137 cell culture. Three antioxidant concentrations were evaluated: 1 mM (Run #1-13), 0.25 mM (Run #17-29), and 0.0625 mM (Run #33-45). The antioxidants were dissolved in either pure ethanol or dimethyl sulfoxide (DMSO) at 50 mM stock concentration and added to feed media M154A1B at the designed final concentrations. The corresponding solvent negative controls were run number 16, 32, and 48. Two traditional antioxidants, ascorbic acid (Run #14, 30, and 46) and reduced glutathione (Run #15, 31, and 47), served as positive controls. The basal media M171IB was not supplemented with antioxidant.
(§1) Cells were cultured either in 50 ml spin tubes with an initial volume of 25 ml and a shaking speed of 300 rpm; or 250 ml shake flasks with an initial volume of 80˜100 ml and a shaking speed of 150 rpm on an orbital shaker with 25 mm throw distance. Temperature for the culture was controlled at constant 37° C. from the beginning of the culture and was shifted to 34° C. when viable cell density reached 10^6 cells/ml (usually on day 6) and CO2 was controlled at 6%.
(§2) A standard fed-batch culture process involved culturing the cells for 14 days with feeding beginning on day 3 at a feeding volume of 3.64% of initial culture volume. All the media used for cultures were chemically defined. Chemically defined feed media M154A1B is an enriched version of feed media F3.2. While the ingredient lists are the same between the two feed media, the concentration of a few of the ingredients is increased. Likewise, chemically defined basal media M17IB is an enriched version of basal media B1. For cultures in 7-liter or 500-liter reactors, dissolved oxygen (DO) was maintained at 50% and pH was controlled between 6.8 and 7.4.
(§3) Viable cell density (VCD) and cell viability were measured off-line using a CEDEX® automated cell counter (Innovatis AG). Culture samples were also analyzed off-line using a BIOPROFILE® 400 Analyzer to monitor pH, pCO2, pO2, glucose, glutamine, glutamate, lactate, and ammonium (Nova Biomedical Corporation). A Protein A HPLC method was used to measure protein titer, which were reported as normalized values.

[2] = system: aCD137 cells; assay: aCD137 fed-batch culture with antioxidant in basal and/or feed media (shaker flask, 7-liter, 500-liter)
Experimental: In another embodiment, the dhfr-negative Chinese Hamster Ovary (CHO) cell line DG44 (Invitrogen Corp. Carlsbad, CA) were transfected in order to establish a stable cell line expressing a human IgG4 antibody.
The transfected CHO DG44 cells expressing the antibody was grown in the presence of antioxidants according to the methods of the invention.
as §1, §2, §3

[3] = system: myostatin cells; assay: Myostatin cell culture with antioxidant in basal and/or feed media (shake flask, 20-liter reactor)
Experimental: (§4) In another embodiment, the dhfr-negative Chinese Hamster Ovary (CHO) cell line DG44 (Invitrogen Corp. Carlsbad, CA) was transfected in order to establish a stable cell line expressing a recombinant human fusion protein.
(§5) The transfected CHO DG44 cells expressing the fusion protein was grown in the presence of antioxidants according to the methods of the invention.
as §1, §2, §3

[4] = system: aCD40L cells; assay: aCD40L cell shake flask culture with catechin in feed media; conditions: feed media 154A1 at 0.34 μM, 3.45 μM, 34.45 μM, 344.52 μM; basal media M17IB without catechin; shake flasks
Experimental: as §4, §5, §1
A standard fed-batch culture process involved culturing the cells for 14 days with feeding beginning on day 3 at a feeding volume of 3.64% of initial culture volume. All the media used for cultures were chemically defined. […]
as §3, with “A Protein A HPLC method was used to measure protein titer, which were reported as normalized values.” left out

[5] = 0.0625 mM in feed media M154A1B
[6] = feed at all three concentrations (0.0625-1 mM)
[7] = basal media M17IB 0.07 mM and feed media M154A1B 1 mM, shaker flask fed-batch
[8] = basal media M17IB at 0.1 mM, feed media M154A1B, 7-liter fed-batch
[9] = basal media at 0.1 mM, 500-liter production run
[10] = basal media B1 at 0.1 mM or feed media F3.2 at 1 mM or both, shake flask
[11] = basal media B1 at 0.1 mM, feed media F3.2, 20-liter bioreactor
[12] = feed media F3.2 at 1 mM, basal media B1, shaker flask fed-batch

Compound | VCD % [1, 5] [%] | Titer % [1, 5] [%] | VCD % ([1]; 0.25 mM in feed media M154A1B) [%] | Titer % ([1]; 0.25 mM in feed media M154A1B) [%] | VCD % ([1]; 1 mM in feed media M154A1B) [%] | Titer % ([1]; 1 mM in feed media M154A1B) [%] | protein titer [1, 6] | protein titer [2, 7] | viable cell density [2, 7] | also measured
O=C(/C=C/c1ccc(O)c(O)c1)O[C@@H]1C[C@](O)(C(=O)O)C[C@@H](O)[C@H]1O [Chlorogenic acid, chlorogenic acid] | 115.85 | 110.71 | 109.35 | 109.92 | 129.57 | 151.59 | increased protein titer | increased | increased | –
Oc1ccc(-c2[o+]c3cc(O)cc(O)c3cc2O)cc1 [Pelargonidin, pelargonidin] | – | – | – | – | 104.47 | 118.25 | – | – | – | –
O=c1c(O)c(-c2ccc(O)c(O)c2)oc2cc(O)cc(O)c12 [Quercetin, quercetin] | – | – | 119.28 | 111.90 | 123.11 | 128.97 | – | increased | increased | protein titer ([1]; feed at 0.25 mM and 1 mM): increased protein titer
Oc1ccc(C=Cc2cc(O)cc(O)c2)cc1 [Resveratrol, resveratrol] | 102.53 | 112.70 | 92.24 | 111.90 | 107.48 | 144.05 | increased protein titer | increased | increased | –
O=C(/C=C/c1ccc(O)c(O)c1)O[C@H](Cc1ccc(O)c(O)c1)C(=O)O [Rosmarinic acid, rosmarinic acid] | 129.25 | 132.14 | 125.43 | 146.83 | 124.08 | 180.16 | increased protein titer | increased | increased | ammonium formation [2, 8]: reduced; lactate formation [2, 8]: reduced; protein titer [2, 8]: increased; viable cell density [2, 8]: increased; lactate formation [2, 9]: reduced; protein titer [2, 9]: increased; viable cell density [2, 9]: increased; ammonium formation [3, 10]: reduced; protein titer [3, 10]: increased; viable cell density [3, 10]: increased; protein titer [3, 11]: effect on protein titer was maintained; viable cell density [3, 11]: not changed
COc1cc(C2Oc3cc([C@H]4Oc5cc(O)cc(O)c5C(=O)[C@@H]4O)ccc3OC2CO)ccc1O (stereo partly drawn) [Silibinin, silibinin] | – | – | – | – | 99.11 | 144.44 | – | – | – | –
catechin | 98.66 | 111.90 | 93.52 | 112.70 | 102.01 | 116.67 | increased protein titer | increased | increased | protein titer [4]: corresponds to an increase in catechin concentration; viable cell density [4]: corresponds to an increase in catechin concentration; ammonium formation [2, 8]: reduced; lactate formation [2, 8]: reduced; protein titer [2, 8]: increased; viable cell density [2, 8]: increased; protein titer [2, 12]: increased; viable cell density [2, 12]: maintained; protein titer [3, 11]: effect on protein titer was maintained; viable cell density [3, 11]: not changed

From patent US12410457B2, “Use of rosmarinic acid in cell bioproduction” (BRISTOL-MYERS SQUIBB COMPANY, priority 2015, dated 2025)
